# Patent US6911324B2, “Induction of beta cell differentiation in human cells” (The Regents of the University of California, priority 2001, dated 2005)
# What was measured:
# Format in all cases: cell-based, human
# βlox5 cells [1] = test: RT-PCR analysis of pancreatic hormone gene expression in βlox5 cells
# Protocol: FIG. 2: RT-PCR analysis of pancreatic hormone gene expression in βlox5. The conditions tested were βlox5 cells grown in monolayer culture, βlox5 cells infected with a retroviral vector expressing PDX-1, βlox5 cells grown as three-dimensional aggregates, and βlox5 cells treated with exendin-4. FIG. 2(A) insulin; FIG. 2(B) quantitative RT-PCR analysis of insulin gene expression; FIG. 2(C) other pancreatic hormones. Exendin-4 (Sigma) was used at a concentration of 10 nM. RT-PCR for insulin, somatostatin, glucagon, and IAPP have been described previously (Itkin-Ansari et al., submitted). Quantitative RT-PCR was done by interpolation from a standard curve constructed using a plasmid containing the human insulin cDNA.
# PDX-1 also acted synergistically with cell-cell contact to further increase the level of somatostatin expression about 1,000-fold above the cells not expressing PDX-1, to a level similar to that found in normal human islets. To determine whether βlox5 could be induced to express pancreatic hormones, recombinant PDX-1 was expressed in βlox5 using a retroviral vector. […] Therefore, other factors were examined for their ability to induce hormone expression in βlox5 cells expressing PDX-1. Activin and betacellulin have been reported to be able to induce endocrine differentiation in cell lines and primary cells (Mashima et al., Diabetes 48:304-9 (1999), Huotari et al., Endocrinology 139, 1494-9 (1998), Mashima et al., J Clin Invest 97:1647-54 (1996), Yamaoka et al., J Clin Invest 102:294-301 (1998)). However, they had no effect on hormone expression in βlox5 cells (data not shown).
# GLP-1, a small peptide cleaved from the proglucagon molecule, is an insulin secretogogue Drucker et al., Diabetes 47:159-69 (1998)).
# βlox5 cells [2] = test: Analysis of transcription factors (BETA2 RT-PCR, CREB western blot) in βlox5 cells
# Protocol: FIG. 3: Analysis of transcription factors expressed in βlox5 cells. FIG. 3(A) electrophoretic mobility shift assay (EMSA) of PDX-1. EMSA for PDX-1 was performed using a probe derived from the human insulin promoter A5 element. FIGS. 3(B&C) RT-PCR analysis of BETA2 and Pax6. FIG. 3(D) Western blot analysis of CREB. FIG. 3(E) EMSA of RIPE3b.
# The expression of transcription factors important in β-cell development was examined to determine whether they had been induced by PDX-1, cell-cell contact, and exendin-4. […] GLP-1 has been reported to increase cAMP levels and this has been thought to be a major mechanism by which GLP-1 acts as an insulin secretogogue (Serre et al., Endocrinology 139:4448-54 (1998)). […] RIPE3b, a factor that plays a critical role in insulin gene expression but that has not yet been cloned, is expressed in βlox5 irrespective of PDX-1, cell-cell contact, or exendin-4 (FIG. 3E).
# [3] = system: βlox5 cells expressing both NeuroD/BETA2 and PDX-1; test: Insulin production (RT-PCR) in βlox5 cells expressing both NeuroD/BETA2 and PDX-1
# Protocol: Cells were cultured in DMEM with 5.5 mM glucose and 10% FBS. Selection of clones was conducted in the same medium containing 300 ug/ml Hygromycin B. Qualitative RT-PCR was performed according to Itkin-Ansari et al., Mol. Endocrinol. 14:814-822 (2000).
# In light of the previous finding that activation of GLP-1 receptor is one of the necessary inducing factors for β-cell differentiation, βlox5 cells expressing both NeuroD/BETA2 and PDX-1 were also tested for insulin production, before and after stimulation by exendin-4. The cells were treated with 10 nM exendin-4 in the culture medium for four days before the assay.
# Cell aggregation was induced as described by Itkin-Ansari et al., supra, 2000. Quantitative insulin RT-PCR was performed by interpolation from a standard curve constructed using a plasmid containing the human insulin cDNA, as described by Beattie et al., Diabetes, 48:1013-1019, 1999.
# MycER fusion protein = test: RT-PCR of c-Myc downstream targets cyclin E and cyclin A after MycER activation; settings: βlox5/PDX-1/MycER aggregates
# From the text: To test the hypothesis that decreased c-Myc expression in cell aggregates plays a causal role in promoting differentiation by cell-cell contact, we took advantage of the inducible properties of a fusion protein between an estrogen receptor and c-Myc (Eilers, et al. Nature 340:66-68 (1989)). MycER was expressed in TRM-6 and βlox5 by retroviral infection followed by puromycin selection. Selected βlox5 and TRM-6 cells expressed MycER as shown by western blot analysis. To determine whether the fusion protein was active, the expression of cyclin E and cyclin A was determined since they are known downstream targets of c-Myc.
# [4] = system: βlox5/PDX-1/MycER aggregates; test: Ki-67 immunostaining for cell proliferation; settings: 4-OHTM added to aggregates; 16% without 4-OHTM; n=300 cells
# From the text: PDX-1 and cell-cell contact caused a decrease in cell proliferation in βlox5/PDX-1/MycER cells as shown by immunostaining for the proliferation-associated nuclear antigen Ki-67. In monolayer culture, 77% of βlox5 cells expressed Ki67, while only 16% of the cells in βlox5/PDX-1/MycER aggregates were Ki67 positive (n=300 cells in each case). Addition of 4-OHTM to the aggregates increased the percentage of Ki67 positive cells to 57%. In the absence of 4-OHTM, few cells in the aggregates were positive for Ki-67, while in the presence of 4-OHTM many cells throughout the aggregates were positive.
# [5] = system: βlox5/PDX-1/MycER aggregates; test: Hormone expression after c-Myc induction in βlox5/PDX-1/MycER aggregates (RT-PCR, insulin ELISA)
# Protocol: (§1) To determine whether the induction of differentiation in the TRM-6 and βlox5 cell lines requires downregulation of c-Myc expression, the effect of inducing c-Myc activity on hormone expression in cells expressing the MycER fusion protein was tested. 4-OHTM or the same amount of ethanol carrier was added to TRM-6/PDX-1 and βlox5/PDX-1 cells at the initiation of the four day period of aggregation required for hormone induction. In addition, 100 nM of the GLP-1 agonist exendin-4 was added to βlox5/PDX-1, as activation of the GLP-1 receptor is necessary for β-cell differentiation in that cell line (Itkin-Ansari, et al., Molec. Endocrinol. 14:814-822(2000)).
# (§2) In the absence of 4-OHTM, TRM-6 aggregates expressed high levels of somatostatin after four days of aggregation, while βlox5 aggregates expressed high levels of insulin. […] Insulin protein (273±70.5 pmoles/L) was detected by ELISA in supernatant from βlox5/PDX-1/MycER aggregates in the absence of 4-OHTM but was undetectable in the presence of 4-OHTM. Data were obtained from four independent experiments. To determine whether c-Myc activation produced ablation of hormone expression as opposed to a switch to a different endocrine lineage, the expression of the other major pancreatic hormones, somatostatin, glucagon and pancreatic polypeptide, was measured in 4-OHTM-treated βlox5/PDX-1/MycER cells and found to be absent.
# TRM-6/PDX-1 cells = test: Somatostatin expression after c-Myc induction in TRM-6 aggregates; settings: four days of aggregation, presence of 4-OHTM
# Protocol: as §1, §2
# [6] = system: βlox5/PDX-1/MycER aggregates; test: Transcription factor expression after c-Myc activation (RT-PCR, EMSA, western blot); settings: c-Myc activation by 4-OHTM
# Protocol: For western blots, whole-cell extracts (10 μg of protein) from monolayer cultures and aggregates of TRM-6 and βlox5 cells as well as whole-cell extracts of the MycER expressing clones were used. Expression of c-Myc and MycER was determined by Western blot analysis with the human c-Myc-specific monoclonal antibody Myc-9E10 (Santa Cruz Biotechnology, Santa Cruz, Calif.) at a dilution of 1:250. The same membrane was re-probed with anti-actin rabbit antibody A2066 (Sigma, Saint Louis, Mo.) in order to verify the protein equivalence when comparing monolayers to aggregates. Western Blot for Phospho-CREB (Ser133) was performed using a polyclonal antibody (PhosphoPlusCREB (Ser133) Antibody Kit, Cell Signaling Technology, Beverly, Mass.) at a dilution of 1:500. Bound antibody was detected with horseradish peroxidase-linked anti-mouse or anti-rabbit Ig (Amersham Pharmacia Biotech, Buckinghamshire, England) and ECL (Amersham Pharmacia Biotech, Buckinghamshire, England).
# βlox5 cells express Pax6 and RIPE3b in both the uninduced and induced states. BETA2/NeuroD is present only when the cells are induced. […] As shown by electrophoretic mobility shift assay analysis (EMSA), although not quantitative, we found binding of PDX-1, BETA2/NeuroD1 or RIPE3b to the insulin promoter in the samples from βlox5/PDX-1/MycER aggregates cultured with and without 4-OHTM. […]
# βlox5/PDX-1/MycER cells = test: PDX-1 cellular localization and p38 activation state
# From the text: PDX-1 plays a role in the establishment and maintenance of β-cell differentiation. In both the βlox5 and TRM-6 cell lines, it is required for the induction of hormone expression. Therefore, PDX-1 was a good candidate for being a downstream target for c-Myc in the inhibition of hormone expression. Since, in the cell lines that we are studying, PDX-1 is introduced exogenously using a retroviral vector and is transcribed from the retroviral LTR promoter, it was unlikely that c-Myc would be acting at the transcriptional level. Therefore, we investigated PDX-1 cellular localization in βlox5/PDX-1/MycER cells in the presence and absence of 4-OHTM. […] However, many cells exposed to 4-OHTM continued to express PDX-1 in the nucleus and PDX-1 binding to a target DNA sequence could still be detected by EMSA. This could be due to the length of time that the cells were exposed to 4-OHTM or to other pathways such as p38 (RK/SAPK2) that influences PDX-1 localization and function.
# Because PDX-1 localization has been reported to be influenced by the p38 pathway, the activation state of p38 was studied using a monoclonal antibody specific for the phosphorylated/active form of the enzyme. In control and 4-OHTM-treated βlox5/PDX-1/MycER cells, active p38 was present in the cytoplasm.
# βlox5/PDX-1 cells = test: Expansion of βlox5/PDX-1 cells under continued administration; settings: continued administration of 4-OHTM; cells ordinarily almost completely growth arrested
# From the text: The finding that c-Myc induces the translocation of PDX-1 to the cytoplasm provides important clues to the mechanism by which c-Myc may act on pancreatic endocrine cell proliferation and differentiation. In our system, not only does PDX-1 play a role in inducing hormone expression, but it also produces a marked growth arrest, particularly in the β-cell line βlox5. […] Thus, cell-cell contact and PDX-1 each play dual roles in inhibiting entry into the cell cycle as well as promoting differentiation.
# [7] = induced βlox5 cells (PDX-1, cell-cell contact, exendin-4)
compound,measurement,setting,value
Activin,effect on hormone expression in βlox5 cells,"βlox5 cells [1]; βlox5 cells expressing PDX-1, data not shown",no effect
exendin-4,effect on hormone expression in βlox5,"βlox5 cells [1]; exendin-4 by itself, 10 nM, four days",no effect
same,Islet amyloid polypeptide (IAPP) mRNA,βlox5 cells [1]; [7],expressed
same,"glucagon, somatostatin and pancreatic polypeptide (PP) expression",βlox5 cells [1]; [7],not induced
same,insulin mRNA,"βlox5 cells [1]; βlox5 cells expressing PDX-1, suspension culture as three-dimensional aggregates, 10 nM exendin-4",a substantial amount of insulin mRNA was detectable
same,BETA2 expression,"βlox5 cells [2]; PDX-1, cell-cell contact and exendin-4",induced only by the combination of all three inducing factors
same,CREB expression,"βlox5 cells [2]; exendin-4 alone, independently of cell-cell contact and PDX-1",induced
same,insulin production,"[3]; 10 nM exendin-4, suspension culture, three-dimensional aggregates",clearly detectable
same,insulin production,"[3]; exendin-4 treatment alone, 10 nM, four days",incapable of inducing insulin production
CC/C(=C(\c1ccc(O)cc1)c1ccc(OCCN(C)C)cc1)c1ccccc1 [4-OHTM],cyclin A expression,MycER fusion protein,did not affect
same,cyclin E mRNA expression,MycER fusion protein,increase
same,percentage of Ki67 positive cells,[4],57%
same,"expression of somatostatin, glucagon and pancreatic polypeptide",[5]; 4-OHTM-treated βlox5/PDX-1/MycER cells,absent
same,insulin mRNA,"[5]; four days of aggregation, 100 nM exendin-4, presence of 4-OHTM",neither somatostatin nor insulin mRNA was present
same,insulin protein in supernatant by ELISA,"[5]; presence of 4-OHTM, 273±70.5 pmoles/L in its absence, four independent experiments",undetectable
same,somatostatin mRNA,TRM-6/PDX-1 cells,neither somatostatin nor insulin mRNA was present
same,level of mRNA for Pax6 and induction of BETA2/NeuroD1 gene expression,[6]; RT-PCR,did not result in a change
same,CREB expression,[6]; western blot,not affected
same,PDX-1 cellular localization,βlox5/PDX-1/MycER cells; 4-OHTM-induced activation of c-Myc,translocation of PDX-1 from the nucleus to the cytoplasm
same,p38 expression or activation,"βlox5/PDX-1/MycER cells; 4-OHTM-treated cells, antibody to phosphorylated/active p38",did not result in any changes
same,cell growth,βlox5/PDX-1 cells,rapid expansion
